The values that follow come from US20130089510A1, “OTIC COMPOSITIONS FOR THE TREATMENT OF INFECTIONS OF THE INTERNAL AND EXTERNAL EAR IN MAMMALS” (Foresight Biotherapeutics, Inc., priority 2008, published 2013).

The test system of one data set is external ear. Conditions: in vivo; cited from earlier work.
Data set [1] can be described thus: Reactivity/compatibility of PVP-I with other active ingredients.

As to “1-Vinyl-2-pyrrolidinone polymers, iodine complex [PVP-I]”, the “concentration known to be safe for use in the external ear (and inner ear through a ruptured tympanic membrane)” value in the data set on external ear was “up to 10.0 % (w/w, aqueous)”. The “available iodine in the PVP-I complex” value in data set [1] (with Ketorolac, depending on the ratio between Ketorolac and PVP-I) is “reduced significantly”.

On to `O=C(c1ccccc1)c1ccc2n1CCC2C(=O)O` (stereo not drawn) [Ketorolac], for which, in data set [1] (mixed with PVP-I), the “consumption of the agent on reaction with PVP-I” value is “completely consumed”.
